Measured values published in US8846653B2, “Delta-tocotrienol treatment and prevention of pancreatic cancer” (University of South Florida, priority 2006, dated 2014).

Test system: MiaPaCa-2 cells
Test: MTS assay of MiaPaCa2 cultures, single 50 μM dose
Assay type: cell-based, human
Conditions: MiaPaCa2, 50 μM
Protocol: MiaPaCa-2 cells were cultured in complete DMEM media containing 10% fetal bovine serum (FBS) and 1% penicillin-streptomycin, and 1% L-glutamine. BxPc-3 pancreatic cancer cells were cultured in complete RPMI media containing 10% fetal bovine serum (FBS), and 1% penicillin-streptomycin, 1% HEPES buffer, 1% sodium pyruvate and 1% L-glutamine HPDE6-C7 cells were cultured in serum-free keratinocyte SFM media. All cells were maintained at 37° C. in a humidified incubator with 5% CO2. The cells were treated with a single 50 μM dose of vehicle (vehicle only, may be a solvent), T3 alpha (alpha tocotrienol), T3 beta (beta tocotrienol), T3 gamma (gamma tocotrienol), T3 delta (delta tocotrienol), T alpha (alpha tocopherol), T beta (beta tocopherol), TS (tocopherol succinate), GG (geranylgeraniol), SA (succinic acid). A control (no treatment) culture was grown alongside the treatments for comparison. […]

CC(C)=CCC/C(C)=C/CC/C(C)=C/CC/C(C)=C/CO [GG, geranylgeraniol]
rel amt (relative value set to the control) (24 hours): 82 | MTS assay result, run 1 (24 hours): 0.186 | MTS assay result, run 2 (24 hours): 0.166 | MTS assay result, run 3 (24 hours): 0.175 | MTS assay result, run 4 (24 hours): 0.18 | MTS assay result, run 5 (24 hours): 0.196 | MTS assay result, run 6 (24 hours): 0.199 | MTS assay result, run 7 (24 hours): 0.184 | MTS assay result, run 8 (24 hours): 0.178 | MTS assay result, run 9 (24 hours): 0.183 | rel amt (relative value set to the control) (48 hours): 53 | MTS assay result, run 1 (48 hours): 0.154 | MTS assay result, run 2 (48 hours): 0.194 | MTS assay result, run 3 (48 hours): 0.181 | MTS assay result, run 4 (48 hours): 0.198 | MTS assay result, run 5 (48 hours): 0.236 | MTS assay result, run 6 (48 hours): 0.198 | MTS assay result, run 7 (48 hours): 0.193 | MTS assay result, run 8 (48 hours): 0.192 | MTS assay result, run 9 (48 hours): 0.193 | rel amt (relative value set to the control) (72 hours): 158 | MTS assay result, run 1 (72 hours): 0.784 | MTS assay result, run 2 (72 hours): 0.713 | MTS assay result, run 3 (72 hours): 0.757 | MTS assay result, run 4 (72 hours): 0.734 | MTS assay result, run 5 (72 hours): 0.682 | MTS assay result, run 6 (72 hours): 0.665 | MTS assay result, run 7 (72 hours): 0.65 | MTS assay result, run 8 (72 hours): 0.627 | MTS assay result, run 9 (72 hours): 0.702

O=C(O)CCC(=O)O [SA, succinic acid]
rel amt (relative value set to the control) (24 hours): 105 | MTS assay result, run 1 (24 hours): 0.24 | MTS assay result, run 2 (24 hours): 0.248 | MTS assay result, run 3 (24 hours): 0.25 | MTS assay result, run 4 (24 hours): 0.245 | MTS assay result, run 5 (24 hours): 0.236 | MTS assay result, run 6 (24 hours): 0.219 | MTS assay result, run 7 (24 hours): 0.214 | MTS assay result, run 8 (24 hours): 0.204 | MTS assay result, run 9 (24 hours): 0.232 | rel amt (relative value set to the control) (48 hours): 90 | MTS assay result, run 1 (48 hours): 0.334 | MTS assay result, run 2 (48 hours): 0.335 | MTS assay result, run 3 (48 hours): 0.333 | MTS assay result, run 4 (48 hours): 0.304 | MTS assay result, run 5 (48 hours): 0.32 | MTS assay result, run 6 (48 hours): 0.294 | MTS assay result, run 7 (48 hours): 0.352 | MTS assay result, run 8 (48 hours): 0.348 | MTS assay result, run 9 (48 hours): 0.328 | rel amt (relative value set to the control) (72 hours): 114 | MTS assay result, run 1 (72 hours): 0.596 | MTS assay result, run 2 (72 hours): 0.547 | MTS assay result, run 3 (72 hours): 0.566 | MTS assay result, run 4 (72 hours): 0.515 | MTS assay result, run 5 (72 hours): 0.544 | MTS assay result, run 6 (72 hours): 0.44 | MTS assay result, run 7 (72 hours): 0.397 | MTS assay result, run 8 (72 hours): 0.427 | MTS assay result, run 9 (72 hours): 0.504

Cc1c(O)cc2c(c1C)O[C@](C)(CCC[C@H](C)CCC[C@H](C)CCCC(C)C)CC2 [T gamma]
rel amt (relative value set to the control) (24 hours): 121 | MTS assay result, run 1 (24 hours): 0.273 | MTS assay result, run 2 (24 hours): 0.261 | MTS assay result, run 3 (24 hours): 0.268 | MTS assay result, run 4 (24 hours): 0.219 | MTS assay result, run 5 (24 hours): 0.264 | MTS assay result, run 6 (24 hours): 0.31 | MTS assay result, run 7 (24 hours): 0.295 | MTS assay result, run 8 (24 hours): 0.263 | MTS assay result, run 9 (24 hours): 0.269 | rel amt (relative value set to the control) (48 hours): 81 | MTS assay result, run 1 (48 hours): 0.329 | MTS assay result, run 2 (48 hours): 0.265 | MTS assay result, run 3 (48 hours): 0.304 | MTS assay result, run 4 (48 hours): 0.25 | MTS assay result, run 5 (48 hours): 0.289 | MTS assay result, run 6 (48 hours): 0.341 | MTS assay result, run 7 (48 hours): 0.301 | MTS assay result, run 8 (48 hours): 0.279 | MTS assay result, run 9 (48 hours): 0.295 | rel amt (relative value set to the control) (72 hours): 108 | MTS assay result, run 1 (72 hours): 0.5 | MTS assay result, run 2 (72 hours): 0.497 | MTS assay result, run 3 (72 hours): 0.46 | MTS assay result, run 4 (72 hours): 0.505 | MTS assay result, run 5 (72 hours): 0.515 | MTS assay result, run 6 (72 hours): 0.469 | MTS assay result, run 7 (72 hours): 0.429 | MTS assay result, run 8 (72 hours): 0.451 | MTS assay result, run 9 (72 hours): 0.478

Cc1c(C)c2c(c(C)c1OC(=O)CCC(=O)O)CC[C@@](C)(CCC[C@H](C)CCC[C@H](C)CCCC(C)C)O2 [TS, tocopherol succinate]
rel amt (relative value set to the control) (24 hours): 96 | MTS assay result, run 1 (24 hours): 0.24 | MTS assay result, run 2 (24 hours): 0.211 | MTS assay result, run 3 (24 hours): 0.226 | MTS assay result, run 4 (24 hours): 0.172 | MTS assay result, run 5 (24 hours): 0.221 | MTS assay result, run 6 (24 hours): 0.201 | MTS assay result, run 7 (24 hours): 0.214 | MTS assay result, run 8 (24 hours): 0.228 | MTS assay result, run 9 (24 hours): 0.214 | rel amt (relative value set to the control) (48 hours): 76 | MTS assay result, run 1 (48 hours): 0.257 | MTS assay result, run 2 (48 hours): 0.254 | MTS assay result, run 3 (48 hours): 0.262 | MTS assay result, run 4 (48 hours): 0.237 | MTS assay result, run 5 (48 hours): 0.258 | MTS assay result, run 6 (48 hours): 0.275 | MTS assay result, run 7 (48 hours): 0.32 | MTS assay result, run 8 (48 hours): 0.337 | MTS assay result, run 9 (48 hours): 0.275 | rel amt (relative value set to the control) (72 hours): 207 | MTS assay result, run 1 (72 hours): 0.998 | MTS assay result, run 2 (72 hours): 0.962 | MTS assay result, run 3 (72 hours): 1.016 | MTS assay result, run 4 (72 hours): 0.887 | MTS assay result, run 5 (72 hours): 0.936 | MTS assay result, run 6 (72 hours): 0.897 | MTS assay result, run 7 (72 hours): 0.85 | MTS assay result, run 8 (72 hours): 0.801 | MTS assay result, run 9 (72 hours): 0.918
